In patent publication EP2970215B1, “PYRROLIDINE DERIVATIVES, PHARMACEUTICAL COMPOSITIONS CONTAINING THEM, AND THEIR USE IN THERAPY” (AbbVie Deutschland GmbH & Co. KG, priority 2013, dated 2014):

These compounds were tested against T1, human GlyT1c transporter (Homo sapiens, UniProt P48067) (assay: Radioligand binding assay using recombinant CHO cell membranes expressing human GlyT1). Details: radioligand binding to human GlyT1c transporter-expressing membranes.
T1 construct: expressed in transfected cells; host or cells: CHO cells (recombinant; line hGlyT1c_5_CHO is named for the uptake assay)
T1 sequence (P48067 1-706): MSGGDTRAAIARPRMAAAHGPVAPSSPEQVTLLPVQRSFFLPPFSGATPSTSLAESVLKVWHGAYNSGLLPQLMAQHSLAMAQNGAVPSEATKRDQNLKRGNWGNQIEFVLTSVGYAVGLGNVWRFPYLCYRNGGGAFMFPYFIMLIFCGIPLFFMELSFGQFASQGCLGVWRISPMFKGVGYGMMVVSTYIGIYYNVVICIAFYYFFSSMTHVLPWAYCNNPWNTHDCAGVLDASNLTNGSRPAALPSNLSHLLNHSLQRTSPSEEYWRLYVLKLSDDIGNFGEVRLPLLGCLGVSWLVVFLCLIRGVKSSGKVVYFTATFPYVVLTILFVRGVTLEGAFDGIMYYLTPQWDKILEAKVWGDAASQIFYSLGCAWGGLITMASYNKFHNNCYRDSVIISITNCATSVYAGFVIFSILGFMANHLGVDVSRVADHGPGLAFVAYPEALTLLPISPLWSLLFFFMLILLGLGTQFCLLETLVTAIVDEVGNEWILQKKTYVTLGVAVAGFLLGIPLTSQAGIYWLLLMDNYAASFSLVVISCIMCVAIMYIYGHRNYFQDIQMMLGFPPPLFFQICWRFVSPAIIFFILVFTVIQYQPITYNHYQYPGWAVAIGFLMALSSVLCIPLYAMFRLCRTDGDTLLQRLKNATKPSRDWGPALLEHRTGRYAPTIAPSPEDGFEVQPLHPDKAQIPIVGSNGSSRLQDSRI
Text: 2. Radioligand binding assays using recombinant CHO cell membranes expressing human GlyT1: […]

Compound | Ki [nM]
Cn1cnc(S(=O)(=O)N2C[C@@H](Nc3cccc(C(C)(C)C)c3)[C@H](c3ccc(F)cc3)C2)c1 (relative stereo) [Example 171, trans-N-(3-tert-butylphenyl)-4-(4-fluorophenyl)-1-[(1-methyl-1H-imidazol-4-yl)sulfonyl]pyrrolidin-3-amine] | ≤ 100
Cn1cnc(S(=O)(=O)N2CC(NCc3ccc(C(F)(F)F)cc3)C(O)(c3ccccc3)C2)c1 (stereo not shown) [Example 539, 1-[(1-methyl-1H-imidazol-4-yl)sulfonyl]-3-phenyl-4-{[4-(trifluoromethyl)benzyl]amino}pyrrolidin-3-ol] | ≤ 10000
Cn1cnc(S(=O)(=O)N2C[C@@H](Nc3cc(F)cc(Cl)c3)[C@H](c3ccc(F)cc3)C2)c1 (relative stereo) [Example 174, trans-N-(3-chloro-5-fluorophenyl)-4-(4-fluorophenyl)-1-[(1-methyl-1H-imidazol-4-yl)sulfonyl]pyrrolidin-3-amine] | ≤ 1000
CC1=C(CCN[C@H]2CN(S(=O)(=O)c3cn(C)cn3)C[C@@H]2c2ccccc2)C(C)(C)CCC1 [Example 458, (3R,4S)-1-[(1-methyl-1H-imidazol-4-yl)sulfonyl]-4-phenyl-N-[2-(2,6,6-trimethylcyclohex-1-en-1-yl)ethyl]pyrrolidin-3-amine] | ≤ 10000
Cn1cnc(S(=O)(=O)N2C[C@H](Nc3cc(OCc4ccccc4)ncn3)[C@@H](c3ccc(F)cc3)C2)c1 [Example 774, 6-(benzyloxy)-N-{(3R,4S)-4-(4-fluorophenyl)-1-[(1-methyl-1H-imidazol-4-yl)sulfonyl]pyrrolidin-3-yl}pyrimidin-4-amine] | ≤ 100
Cn1cnc(S(=O)(=O)N2C[C@@H](Nc3cccc(F)c3F)[C@H](c3ccccc3)C2)c1 (relative stereo) [Example 231, trans-N-(2,3-difluorophenyl)-1-[(1-methyl-1H-imidazol-4-yl)sulfonyl]-4-phenylpyrrolidin-3-amine] | ≤ 1000
COc1ccc(S(=O)(=O)N2C[C@@H](NC(=O)c3ccc(C(F)(F)F)cc3)[C@H](c3ccccc3)C2)cc1 (relative stereo) [Example 134, N-{trans-1-[(4-methoxyphenyl)sulfonyl]-4-phenylpyrrolidin-3-yl}-4-(trifluoromethyl)benzamide] | ≤ 10000
Cn1cnc(S(=O)(=O)N2C[C@@H](NC(=O)c3ccccc3C#N)[C@H](c3ccccc3)C2)c1 (relative stereo) [Example 32, 2-cyano-N-{trans-1-[(1-methyl-1H-imidazol-4-yl)sulfonyl]-4-phenylpyrrolidin-3-yl} benzamide] | ≤ 10000
Cn1cnc(S(=O)(=O)N2C[C@H](Nc3cc(Cl)c(Cl)cn3)[C@@H](c3ccc(F)cc3)C2)c1 [Example 706, 4,5-dichloro-N-{(3R,4S)-4-(4-fluorophenyl)-1-[(1-methyl-1H-imidazol-4-yl)sulfonyl]pyrrolidin-3-yl}pyridin-2-amine] | ≤ 10000
Cn1cnc(S(=O)(=O)N2C[C@@H](Nc3ccc(C#N)cc3)[C@H](c3ccccc3)C2)c1 (relative stereo) [Example 52, 4-({trans-1-[(1-methyl-1H-imidazol-4-yl)sulfonyl]-4-phenylpyrrolidin-3-yl}amino)benzonitrile] | ≤ 10000
Cn1cnc(S(=O)(=O)N2C[C@@H](NCc3cccc(F)c3)[C@H](c3ccc(F)cc3)C2)c1 (relative stereo) [Example 264, trans-N-(3-fluorobenzyl)-4-(4-fluorophenyl)-1-[(1-methyl-1H-imidazol-4-yl)sulfonyl]pyrrolidin-3-amine] | ≤ 1000
Cn1cnc(S(=O)(=O)N2C[C@@H](Nc3ccccc3)[C@H](c3cccc(F)c3)C2)c1 (relative stereo) [Example 185, trans-4-(3-fluorophenyl)-1-[(1-methyl-1H-imidazol-4-yl)sulfonyl]-N-phenylpyrrolidin-3-amine] | ≤ 10000
Cn1cnc(S(=O)(=O)N2C[C@@H](Nc3cccc(Cl)c3)[C@H](c3ccccc3)C2)c1 (relative stereo) [Example 74, trans-N-(3-chlorophenyl)-1-[(1-methyl-1H-imidazol-4-yl)sulfonyl]-4-phenylpyrrolidin-3-amine] | ≤ 100
CCCC(F)(F)C(=O)N[C@H]1CN(S(=O)(=O)c2cn(C)cn2)C[C@@H]1c1ccc(F)cc1 [Example 700, 2,2-difluoro-N-{(3R,4S)-4-(4-fluorophenyl)-1-[(1-methyl-1H-imidazol-4-yl)sulfonyl]pyrrolidin-3-yl}pentanamide] | ≤ 10000
Cn1cnc(S(=O)(=O)N2C[C@H](NC(=O)Nc3ccc(F)cc3)[C@@H](c3ccc(F)cc3)C2)c1 [Example 704, 1-(4-fluorophenyl)-3-{(3R,4S)-4-(4-fluorophenyl)-1-[(1-methyl-1H-imidazol-4-yl)sulfonyl]pyrrolidin-3-yl}urea] | ≤ 1000
Cn1cnc(S(=O)(=O)N2C[C@@H](COc3cc(C(F)(F)F)ncn3)[C@H](c3ccc(F)cc3)C2)c1 (relative stereo) [Example 336, 4-({Trans-4-(4-fluorophenyl)-1-[(1-methyl-1H-imidazol-4-yl)sulfonyl]pyrrolidin-3-yl}methoxy)-6-(trifluoromethyl)pyrimidine] | ≤ 1000
Cn1cnc(S(=O)(=O)N2C[C@@H](NCc3ccccc3Cl)[C@H](c3ccc(F)cc3)C2)c1 (relative stereo) [Example 260, trans-N-(2-chlorobenzyl)-4-(4-fluorophenyl)-1-[(1-methyl-1H-imidazol-4-yl)sulfonyl]pyrrolidin-3-amine] | ≤ 100
Cn1cnc(S(=O)(=O)N2C[C@@H](Nc3cccc(C(F)(F)F)c3)[C@H](C3CCCCO3)C2)c1 (relative stereo) [Example 681, Trans-1-[(1-methyl-1H-imidazol-4-yl)sulfonyl]-4-(tetrahydro-2H-pyran-2-yl)-N-[3-(trifluoromethyl)phenyl]pyrrolidin-3-amine] | ≤ 10
Cn1cnc(S(=O)(=O)N2C[C@@H](Nc3cncc(C(F)(F)F)c3)[C@H](c3cccc(F)c3)C2)c1 (relative stereo) [Example 196, N-{trans-4-(3-fluorophenyl)-1-[(1-methyl-1H-imidazol-4-yl)sulfonyl]pyrrolidin-3-yl}-5-(trifluoromethyl)pyridin-3-amine] | ≤ 10000
CCCCN(CCCC)C(=O)[C@@H]1CN(S(=O)(=O)c2cn(C)cn2)C[C@H]1c1ccc(F)cc1 (relative stereo) [Example 636, Trans-N,N-dibutyl-4-(4-fluorophenyl)-1-[(1-methyl-1H-imidazol-4-yl)sulfonyl]pyrrolidine-3-carboxamide] | ≤ 1000
O=C(N[C@@H]1CN(S(=O)(=O)CC2CC2)C[C@H]1c1ccccc1)c1cccc(C(F)(F)F)c1Cl (relative stereo) [Example 130, 2-chloro-N-{trans-1-[(cyclopropylmethyl)sulfonyl]-4-phenylpyrrolidin-3-yl}-3-(trifluoromethyl)benzamide] | > 10000
Cn1cnc(S(=O)(=O)N2C[C@H](Nc3cccc(OCc4ccccc4)c3)[C@@H](c3ccccc3)C2)c1 [Example 773, (3R,4S)-N-[3-(benzyloxy)phenyl]-1-[(1-methyl-1H-imidazol-4-yl)sulfonyl]-4-phenylpyrrolidin-3-amine] | ≤ 100
COc1ccc(N[C@H]2CN(S(=O)(=O)c3cn(C)cn3)C[C@@H]2c2ccccc2)cc1C(F)(F)F [Example 653, (3R,4S)-N-[4-methoxy-3-(trifluoromethyl)phenyl]-1-[(1-methyl-1H-imidazol-4-yl)sulfonyl]-4-phenylpyrrolidin-3-amine] | ≤ 10000
Cn1cnc(S(=O)(=O)N2C[C@@H](Nc3cc(F)cc(C(F)(F)F)c3)[C@H](c3ccccc3)C2)c1 (relative stereo) [Example 223, trans-N-[3-fluoro-5-(trifluoromethyl)phenyl]-1-[(1-methyl-1H-imidazol-4-yl)sulfonyl]-4-phenylpyrrolidin-3-amine] | ≤ 100
Cn1cnc(S(=O)(=O)N2C[C@H](Nc3ccc4ccsc4c3)[C@@H](c3ccc(F)cc3)C2)c1 [Example 677, (3R,4S)-N-(1-benzothiophen-6-yl)-4-(4-fluorophenyl)-1-[(1-methyl-1H-imidazol-4-yl)sulfonyl]pyrrolidin-3-amine] | ≤ 1000
Cn1cnc(S(=O)(=O)N2C[C@@H]([C@@H]3CCCOC3)[C@H](Nc3cccc(OCc4ccccc4)c3)C2)c1 (mixture of isomers) [Example 794, Trans-N-[3-(benzyloxy)phenyl]-1-[(1-methyl-1H-imidazol-4-yl)sulfonyl]-4-[(3S)-tetrahydro-2H-pyran-3-yl]pyrrolidin-3-amine] | ≤ 1000

Same assay, conditions: radioligand binding, recombinant CHO cell membranes expressing human GlyT1c

Compound | Ki [nM]
Cn1cnc(S(=O)(=O)N2C[C@H](Nc3cc(C(F)(F)F)c(F)cn3)[C@@H](c3ccc(F)cc3)C2)c1 [Example 865, 5-fluoro-N-{(3R,4S)-4-(4-fluorophenyl)-1-[(1-methyl-1H-imidazol-4-yl)sulfonyl]pyrrolidin-3-yl}-4-(trifluoromethyl)pyridin-2-amine] | ≤ 10
(3R,4S)-4-(1,3-dioxan-2-yl)-N,N-dihexyl-1-[(1-methyl-1H-imidazol-4-yl)sulfonyl]pyrrolidin-3-amine [Example 909] | ≤ 1000
